Reference: ChEMBL document CHEMBL4828717, “Synthetic cajaninstilbene acid derivatives eradicate methicillin-resistant Staphylococcus aureus persisters and biofilms” (Eur J Med Chem, 2021)
Activity calls are given as the source filed them. The calls are words filed in the database; no cut-off is given here.

What was measured:
Staphylococcus aureus [1] = assay: Antibacterial activity against methicillin resistant Staphylococcus aureus ATCC 43300 persisters assessed as reduction in colony formation at 40 ug/ml incubated for 8 hrs by colony counting method; format: functional, organism-based; conditions: dose 40.0 µg/ml
Enterococcus faecalis = assay: Antibacterial activity against Enterococcus faecalis ATCC29212 assessed as reduction in microbial growth after 16 to 18 hrs by microbroth dilution method; format: functional; conditions: ATCC 29212, time 16-18 hrs
Staphylococcus aureus [2] = assay: Antibacterial activity against methicillin resistant Staphylococcus aureus ATCC 43300 assessed as reduction in microbial growth after 16 to 18 hrs by microbroth dilution method; format: functional; conditions: time 16-18 hrs
Staphylococcus aureus [3] = assay: Antibacterial activity against methicillin resistant Staphylococcus aureus ATCC 62202 assessed as reduction in microbial growth after 16 to 18 hrs by microbroth dilution method; format: functional; conditions: time 16-18 hrs
Staphylococcus aureus [4] = assay: Antibacterial activity against methicillin resistant Staphylococcus aureus ATCC49800 assessed as reduction in microbial growth after 16 to 18 hrs by microbroth dilution method; format: functional; conditions: time 16-18 hrs
RAW264.7 = assay: Cytotoxicity against mouse RAW264.7 cells assessed as cell viability at 10 ug/ml measured after 24 hrs by MTT assay; format: cell-based; conditions: raw264.7, 24 h, dose 10 µg/ml
L02 = assay: Cytotoxicity against human L02 cells assessed as cell viability at 10 ug/ml measured after 24 hrs by MTT assay; format: cell-based; conditions: l02, 24 h, dose 10 µg/ml
Escherichia coli = assay: Antibacterial activity against Escherichia coli ATCC25922 assessed as reduction in microbial growth after 16 to 18 hrs by microbroth dilution method; format: functional; conditions: ATCC 25922, time 16-18 hrs
Staphylococcus aureus [5] = assay: Antibacterial activity against methicillin resistant Staphylococcus aureus ATCC48073 assessed as reduction in microbial growth after 16 to 18 hrs by microbroth dilution method; format: functional; conditions: time 16-18 hrs
Pseudomonas aeruginosa = assay: Antibacterial activity against Pseudomonas aeruginosa ATCC27853 assessed as reduction in microbial growth after 16 to 18 hrs by microbroth dilution method; format: functional; conditions: time 16-18 hrs
Staphylococcus aureus [6] = assay: Antibacterial activity against methicillin resistant Staphylococcus aureus ATCC48706 assessed as reduction in microbial growth after 16 to 18 hrs by microbroth dilution method; format: functional; conditions: time 16-18 hrs
Staphylococcus aureus [7] = assay: Antibacterial activity against methicillin resistant Staphylococcus aureus ATCC513045 assessed as reduction in microbial growth after 16 to 18 hrs by microbroth dilution method; format: functional; conditions: time 16-18 hrs
Staphylococcus aureus [8] = assay: Antibacterial activity against methicillin resistant Staphylococcus aureus ATCC515992 assessed as reduction in microbial growth after 16 to 18 hrs by microbroth dilution method; format: functional; conditions: time 16-18 hrs
Staphylococcus aureus [9] = assay: Antibacterial activity against methicillin resistant Staphylococcus aureus ATCC49008 assessed as reduction in microbial growth after 16 to 18 hrs by microbroth dilution method; format: functional; conditions: time 16-18 hrs
Staphylococcus aureus [10] = assay: Antibacterial activity against methicillin resistant Staphylococcus aureus ATCC49025 assessed as reduction in microbial growth after 16 to 18 hrs by microbroth dilution method; format: functional; conditions: time 16-18 hrs
Staphylococcus aureus [11] = assay: Antibacterial activity against methicillin resistant Staphylococcus aureus ATCC48966 assessed as reduction in microbial growth after 16 to 18 hrs by microbroth dilution method; format: functional; conditions: time 16-18 hrs
Staphylococcus aureus [12] = assay: Antibacterial activity against Staphylococcus aureus ATCC 25923 assessed as reduction in microbial growth after 16 to 18 hrs by microbroth dilution method; format: functional; conditions: time 16-18 hrs
Staphylococcus aureus [13] = assay: Antibacterial activity against methicillin resistant Staphylococcus aureus ATCC 52056 assessed as reduction in microbial growth after 16 to 18 hrs by microbroth dilution method; format: functional; conditions: time 16-18 hrs

| SMILES | Activity (Staphylococcus aureus [1]) | MIC (Enterococcus faecalis) [µg/mL] | MIC (Staphylococcus aureus [2]) [µg/mL] | MIC (Staphylococcus aureus [3]) [µg/mL] | MIC (Staphylococcus aureus [4]) [µg/mL] | Activity (RAW264.7) | Activity (L02) | MIC (Escherichia coli) [µg/mL] | MIC (Staphylococcus aureus [5]) [µg/mL] | MIC (Pseudomonas aeruginosa) [µg/mL] | MIC (Staphylococcus aureus [6]) [µg/mL] | MIC (Staphylococcus aureus [7]) [µg/mL] | MIC (Staphylococcus aureus [8]) [µg/mL] | MIC (Staphylococcus aureus [9]) [µg/mL] | MIC (Staphylococcus aureus [10]) [µg/mL] | MIC (Staphylococcus aureus [11]) [µg/mL] | MIC (Staphylococcus aureus [12]) [µg/mL] | MIC (Staphylococcus aureus [13]) [µg/mL] |
| --- | --- | --- | --- | --- | --- | --- | --- | --- | --- | --- | --- | --- | --- | --- | --- | --- | --- | --- |
| O=C(O)c1cn(C2CC2)c2cc(N3CCNCC3)c(F)cc2c1=O | inactive |  |  |  |  |  |  |  |  |  |  |  |  |  |  |  |  |  |
| CCC(C)Oc1cc(/C=C/c2ccc(C(F)(F)F)cc2)c(C(=O)O)c(O)c1CC=C(C)C (stereo unspecified) |  | > 32 | 1 | 2 | 2 | Toxic | Toxic | > 32 | 2 | > 32 | 2 | 2 | 2 | 2 | 2 | 2 | 2 | 2 |
| CC(C)=CCc1c(OCC(F)F)cc(/C=C/c2ccc(C(F)(F)F)cc2)c(C(=O)O)c1O |  | > 32 | 2 | 2 | 2 | Toxic | Toxic | > 32 | 2 | > 32 | 2 | 2 | 2 | 2 | 2 | 2 | 2 | 2 |
| CC(C)=CCc1c(OC(C)C)cc(/C=C/c2ccc(C(F)(F)F)cc2)c(C(=O)O)c1O |  | > 32 | 1 | 2 | 2 | Toxic | Toxic | > 32 | 2 | > 32 | 2 | 2 | 2 | 2 | 2 | 2 | 2 | 2 |
| CCCCCCCCCC(=O)N[C@@H](Cc1c[nH]c2ccccc12)C(=O)N[C@H](CC(N)=O)C(=O)N[C@@H](CC(=O)O)C(=O)N[C@@H]1C(=O)NCC(=O)N[C@@H](CCCN)C(=O)N[C@@H](CC(=O)O)C(=O)N[C@H](C)C(=O)N[C@@H](CC(=O)O)C(=O)NCC(=O)N[C@H](CO)C(=O)N[C@@H]([C@H](C)CC(=O)O)C(=O)N[C@@H](CC(=O)c2ccccc2N)C(=O)O[C@@H]1C | inactive |  |  |  |  |  |  |  |  |  |  |  |  |  |  |  |  |  |
| CC(C)=CCc1c(OCc2ccccc2)cc(/C=C/c2ccc(F)cc2)c(C(=O)O)c1O |  | > 32 | 32 | 4 | 4 | Toxic | Toxic | > 32 | 4 | > 32 | 4 | 4 | 4 | 4 | 4 | 4 | 4 | 4 |
| CC(C)=CCc1c(OCCC(F)(F)F)cc(/C=C/c2ccc(F)cc2)c(C(=O)O)c1O |  | > 32 | 4 | 4 | 4 | Toxic | Toxic | > 32 | 4 | > 32 | 4 | 2 | 4 | 4 | 4 | 4 | 4 | 4 |
| CC(C)=CCc1c(OCC(F)(F)F)cc(/C=C/c2ccc(C(F)(F)F)cc2)c(C(=O)O)c1O |  | > 32 | 2 | 2 | 2 | Toxic | Toxic | > 32 | 2 | > 32 | 2 | 2 | 2 | 2 | 2 | 2 | 2 | 2 |
| CC(C)=CCc1c(OC(C)C)cc(/C=C/c2ccc(F)cc2)c(C(=O)O)c1O |  | > 32 | 4 | 4 | 4 | Toxic | Toxic | > 32 | 4 | > 32 | 4 | 8 | 2 | 4 | 4 | 4 | 4 | 2 |
| CC(C)=CCc1c(OC2CCCCC2)cc(/C=C/c2ccc(C(F)(F)F)cc2)c(C(=O)O)c1O |  | > 32 | 1 | 2 | 4 | Toxic | Toxic | > 32 | 4 | > 32 | 4 | 2 | 2 | 4 | 4 | 4 | 2 | 2 |
| CC(C)=CCc1c(OCC2CC2)cc(/C=C/c2ccc(C(F)(F)F)cc2)c(C(=O)O)c1O |  | > 32 | 2 | 2 | 2 | Toxic | Toxic | > 32 | 2 | > 32 | 2 | 2 | 2 | 2 | 2 | 2 | 1 | 1 |
| CC(C)=CCc1c(OCCCF)cc(/C=C/c2ccc(F)cc2)c(C(=O)O)c1O |  | > 32 | 4 | 4 | 4 | Toxic | Toxic | > 32 | 4 | > 32 | 4 | 4 | 4 | 4 | 4 | 4 | 4 | 2 |
| CCOc1cc(/C=C/c2ccc(C(F)(F)F)cc2)c(C(=O)O)c(O)c1CC=C(C)C |  | > 32 | 1 | 1 | 2 | Toxic | Toxic | > 32 | 2 | > 32 | 2 | 2 | 2 | 2 | 2 | 2 | 2 | 1 |
| CO[C@H]1/C=C/O[C@@]2(C)Oc3c(C)c(O)c4c(O)c(c(/C=N/N5CCN(C)CC5)c(O)c4c3C2=O)NC(=O)/C(C)=C\C=C\[C@H](C)[C@H](O)[C@@H](C)[C@@H](O)[C@@H](C)[C@H](OC(C)=O)[C@@H]1C | inactive |  |  |  |  |  |  |  |  |  |  |  |  |  |  |  |  |  |
| CC(C)=CCc1c(OC2CCCC2)cc(/C=C/c2ccc(F)cc2)c(C(=O)O)c1O |  | > 32 | 2 | 2 | 4 | Toxic | Toxic | > 32 | 4 | > 32 | 4 | 2 | 2 | 4 | 4 | 4 | 2 | 2 |
| CC(C)=CCc1c(OCc2ccccc2)cc(/C=C/c2ccc(C(F)(F)F)cc2)c(C(=O)O)c1O |  | > 32 | 2 | 2 | 4 | Toxic | Toxic | > 32 | 4 | > 32 | 4 | 2 | 2 | 4 | 4 | 4 | 4 | 2 |
| CC(C)=CCc1c(OC2CCC2)cc(/C=C/c2ccc(C(F)(F)F)cc2)c(C(=O)O)c1O |  | > 32 | 1 | 1 | 2 | Toxic | Toxic | > 32 | 2 | > 32 | 1 | 1 | 2 | 1 | 1 | 1 | 2 | 1 |
